Experimental findings from PubChem BioAssay (NCI) are described below.

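Cultured in 96-well plates, cells were exposed to test compound for 48 hours across five concentrations. GI50 is the concentration that inhibits growth by half. TGI is the concentration that stops growth completely.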

Among the test systems are DU-145 prostate; T-47D breast; BT-549 breast; MDA-N; SN12K1 renal; P388 leukemia; P388/ADR leukemia.
Experiment in all cases: NCI tumour cell line growth inhibition, 48 h

For `COc1ccc(-c2nn(-c3cccc(NC(=O)Nc4ccccc4)c3)cc2-c2ccncc2)cc1Cl`, in the experiment on DU-145 prostate, the GI50 is 2.47 µM and the TGI was found to be 5.87 µM. Further, in the experiment on T-47D breast, the GI50 was 2.19 µM and the TGI worked out at 5.39 µM.

Take `COc1c2c(cc3c1OCO3)C13C=CC(OC)CC1N(CC3)C2` (configuration not stated): the TGI with BT-549 breast, in the experiment with DU-145 prostate, in the experiment with MDA-N and in the experiment with T-47D breast was greater than 100 µM throughout.

As for `Clc1ccc(CNc2nc(Cl)c3[nH]cnc3n2)cc1Cl`, the TGI with BT-549 breast is 84.5 µM; with DU-145 prostate, greater than 100 µM; in the experiment with MDA-N, greater than 100 µM; with T-47D breast it was 51.3 µM.

`CCC(=O)NC(Nc1cccc(F)c1)(C(F)(F)F)C(F)(F)F`: the TGI in the experiment with BT-549 breast, in the experiment on DU-145 prostate, in the experiment on MDA-N and in the experiment with T-47D breast was greater than 100 µM throughout.

As for `CC(=O)C=NCC(=O)O`, the TGI with BT-549 breast, in the experiment with DU-145 prostate, in the experiment with MDA-N and in the experiment on T-47D breast was greater than 100 µM each time.

As to `NC1(C(=O)O)CCc2ccc(N(CCCl)CCCl)cc2C1` (configuration not stated), the TGI was greater than 100 µM with SN12K1 renal, 7.27 µM in the experiment on P388 leukemia and 35.1 µM with P388/ADR leukemia.

Take `Fc1ccc(-c2nn3c(-c4cc(C(F)(F)F)cc(C(F)(F)F)c4)nnc3s2)cc1`: in the experiment with BT-549 breast, the GI50 was greater than 50 µM and the TGI is greater than 50 µM. Moreover, in the experiment with DU-145 prostate, the GI50 was greater than 50 µM and the TGI was greater than 50 µM.
